Converted amounts (≈) assume the structure as drawn.
Assays:
Type in all cases: functional
L1210 = assay: Cytotoxicity against mouse L1210 cells; conditions: read-out: ED50 (the source's name)
KB = assay: Cytotoxicity against human KB cells; conditions: read-out: ED50 (the source's name)
P388 [1] = assay: Cytotoxicity against mouse P388 cells; conditions: read-out: ED50 (the source's name)
HCT-8 = assay: Cytotoxicity against human HCT8 cells; conditions: read-out: ED50 (the source's name)
P388 [2] = assay: Antileukemic activity against mouse P388 cells xenografted in mouse at 3 mg/kg after 3 days relative to control

| SMILES | EC50 (L1210) [µg/mL] | EC50 (KB) [µg/mL] | EC50 (P388 [1]) [µg/mL] | EC50 (HCT-8) [µg/mL] | T/C (P388 [2]) [%] |
| --- | --- | --- | --- | --- | --- |
| C=CC(=O)C#CC#C/C=C\C(=O)CCCCCCC | > 10 | > 10 | > 10 | 3.7 (≈ 14.4 µM) | – |
| CCC[C@@H](O)/C=C/C=C/C=C/C#CC#CCCCO [CICUTOXIN] | – | 2 (≈ 7.74 µM) | – | – | 165 |
| COc1cccc2c1C(=O)c1c(O)c3c(c(O)c1C2=O)C[C@@](O)(C(=O)CO)C[C@@H]3O[C@H]1C[C@H](N)[C@H](O)[C@H](C)O1.Cl [DOXORUBICIN HYDROCHLORIDE] | – | – | – | 0.3 | – |
| COc1cc([C@@H]2c3cc4c(cc3[C@@H](O[C@@H]3O[C@@H]5CO[C@@H](C)O[C@H]5[C@H](O)[C@H]3O)[C@H]3COC(=O)[C@H]23)OCO4)cc(OC)c1O [ETOPOSIDE] | 1.6 (≈ 2.72 µM) | 0.1 (≈ 0.17 µM) | 2.6 (≈ 4.42 µM) | – | – |
| C=CC(C#CC#C/C=C\C(CCCCCCC)OC(C)=O)OC(C)=O (stereo not drawn) [SESELIDIOL DIACETATE] | 5.5 | 4 | 5.2 | 7.8 | – |
| C=CC(O)C#CC#C/C=C\C(O)CCCCCCC (stereo not drawn) [SESELIDIOL] | 3.3 (≈ 12.7 µM) | 1 (≈ 3.84 µM) | 4.9 (≈ 18.8 µM) | 10 (≈ 38.4 µM) | – |

Source: ChEMBL document CHEMBL1158914, “Antitumor agents, 115. Seselidiol, a new cytotoxic polyacetylene from Seseli mairei” (1990)
